Measurements from patent US20250326713A1, “INHIBITORS OF MsbA AS ANTIBIOTICS, PHARMACEUTICAL COMPOSITIONS, AND USES THEREOF” (priority 2022, published 2025).
Values after ≈ are worked out from the molar mass of the structure shown.

Test system: various strains of bacteria
Experiment: Antimicrobial potency: bacterial growth inhibition by OD600 (Antibacterial assay 1, MITC95)
Type: cell-based, A. baumannii
Settings: Acinetobacter baumannii, 20 h, lowest concentration giving >95% growth inhibition, CAMHB, 18-22 h
Procedure: The concentrations of compounds required to inhibit the growth of various strains of bacteria were determined in an assay that assessed bacterial growth by measuring optical density at 600 nm (OD600). Test articles were dissolved in 100% DMSO and serially diluted two-fold from their maximal concentration in 100% DMSO. Forty-nine μl of bacterial inoculum (at approx. 2×10^5 cfu/mL in CAMHB) were put into wells of an assay plate. One μl of compound or DMSO was transferred from the source plate to the assay plate. The completed assay plates were then incubated at 35+2degC for 18-22 h. Bacterial growth was measured by reading OD600 on a spectrophotometer. Data analysis calculates the lowest concentration of compound which results in >95% growth inhibition (minimum inhibitory threshold concentration 95%, MITC95).

Going from `O=C(O)c1cc(CNC23CCC(NCc4ccc(NS(=O)(=O)c5cnn(-c6ccc(Cl)cc6)c5)c(C(=O)O)c4)(C2)C3)ccc1NS(=O)(=O)c1cnn(-c2ccc(Cl)cc2)c1` [Compound 50] to `O=C(O)c1cc(COC2CN(Cc3ccc(NS(=O)(=O)c4cnn(-c5ccc(Cl)cc5)c4)c(C(=O)O)c3)C2)ccc1NS(=O)(=O)c1cnn(-c2ccc(Cl)cc2)c1` [Compound 37, 5-(((1-(3-carboxy-4-(1-(4-chlorophenyl)-1H-pyrazole-4-sulfonamido)benzyl)azetidin-3-yl)oxy)methyl)-2-(1-(4-chlorophenyl)-1H-pyrazole-4-sulfonamido)benzoic acid], the MIC falls from 0.391 µM (≈ 0.349 µg/mL) to 0.0692 µM (≈ 0.059 µg/mL) (5.7-fold).

First: O=C(CCCc1ccc(Cl)cc1)Nc1ccc(OC2CN(Cc3ccc(NS(=O)(=O)c4cnn(-c5ccc(Cl)cc5)c4)c(C(=O)O)c3)C2)cc1C(=O)O [Compound 69]
Second: O=C(Cc1cccc(Cl)c1)Nc1ccc(OC2CN(Cc3ccc(NS(=O)(=O)c4cnn(-c5ccc(Cl)cc5)c4)c(C(=O)O)c3)C2)cc1C(=O)O [Compound 73]
The MIC of the first is 8-fold lower: 0.0245 µM (≈ 0.0191 µg/mL) for the first, 0.196 µM (≈ 0.147 µg/mL) for the second.

Going from `O=C(O)c1cc(OCC2CCC(COc3ccc(NS(=O)(=O)c4cnn(-c5ccc(Cl)cc5)c4)c(C(=O)O)c3)O2)ccc1NS(=O)(=O)c1cnn(-c2ccc(Cl)cc2)c1` (stereo not drawn) [Compound 19, 5-((5-((3-Carboxy-4-((1-(4-chlorophenyl)-1H-pyrazole)-4-sulfonamido)-phenoxy)methyl)tetrahydrofuran-2-yl)methoxy)-2-((1-(4-chlorophenyl)-1H-pyrazole)-4-sulfonamido)benzoic acid] to `O=C(O)c1cc(CN2CC(Oc3ccc(NS(=O)(=O)c4cnn(-c5ccc(F)cc5)c4)c(C(=O)O)c3)C2)ccc1NS(=O)(=O)c1cnn(-c2ccc(F)cc2)c1` [Compound 115, 5-((1-(3-carboxy-4-(1-(4-fluorophenyl)-1H-pyrazole-4-sulfonamido)benzyl)azetidin-3-yl)oxy)-2-(1-(4-fluorophenyl)-1H-pyrazole-4-sulfonamido)benzoic acid], the MIC rises from 0.0245 µM (≈ 0.0217 µg/mL) to 0.277 µM (≈ 0.223 µg/mL) (11-fold).

`O=C(O)c1cc(CN2CC(Oc3ccc(NS(=O)(=O)c4ccc(-c5ccc(F)cc5)cc4)c(C(=O)O)c3)C2)ccc1NS(=O)(=O)c1ccc(-c2ccc(F)cc2)cc1` [Compound 98] and `O=C(O)c1cc(OC2CN(Cc3ccc(NS(=O)(=O)c4ccc(-c5ccc(Cl)cc5)s4)c(C(=O)O)c3)C2)ccc1NS(=O)(=O)c1ccc(-c2ccc(F)cc2)cc1` [Compound 107] are within 1.5-fold of each other in MIC: 0.0692 µM (≈ 0.0572 µg/mL) for the first, 0.0489 µM (≈ 0.0415 µg/mL) for the second.

`O=C(O)c1cc(CN2CC(Oc3ccc(NS(=O)(=O)c4ccc(-c5ccc(Cl)cc5)cc4)c(C(=O)O)c3)C2)ccc1NS(=O)(=O)c1ccc(OC(F)F)cc1` [Compound 103] and `O=C(O)c1cc(CN2CC(Oc3ccc(NS(=O)(=O)c4ccc(-c5cccc(Cl)c5)cc4)c(C(=O)O)c3)C2)ccc1NS(=O)(=O)CCc1ccc(Cl)cc1` [Compound 101] are the same in MIC: 0.0245 µM (≈ 0.0199 µg/mL) for the first, 0.0245 µM (≈ 0.0199 µg/mL) for the second.

First: O=C(O)c1cc(CN2CC(Oc3ccc(NS(=O)(=O)c4cnn(-c5ccc(F)cc5)c4)c(C(=O)O)c3)C2)ccc1NS(=O)(=O)CCCCCCc1ccc(Cl)cc1 [Compound 40]
Second: O=C(O)c1cc(CN2CC(Oc3ccc(NS(=O)(=O)CCc4ccc(F)cc4)c(C(=O)O)c3)C2)ccc1NS(=O)(=O)CCc1ccc(F)cc1 [Compound 78, 5-((1-(3-carboxy-4-((2-(4-fluorophenyl)ethyl)sulfonamido)benzyl)azetidin-3-yl)oxy)-2-((2-(4-fluorophenyl)ethyl)sulfonamido)benzoic acid]
The MIC of the first is 16-fold lower: 0.0489 µM (≈ 0.0411 µg/mL) for the first, 0.782 µM (≈ 0.571 µg/mL) for the second.

First: O=C(NCc1ccc(Cl)cc1)C(=O)Nc1ccc(OC2CN(Cc3ccc(NS(=O)(=O)c4cc(-c5ccc(F)cc5)ns4)c(C(=O)O)c3)C2)cc1C(=O)O [Compound 59]
Second: CC1(Oc2ccc(NS(=O)(=O)N3CCOC(c4ccc(Cl)cc4)C3)c(C(=O)O)c2)CN(Cc2ccc(NS(=O)(=O)N3CCOC(c4ccc(Cl)cc4)C3)c(C(=O)O)c2)C1 (stereo not drawn) [Compound 46]
The MIC of the first is 16-fold lower: 0.0245 µM (≈ 0.0195 µg/mL) for the first, 0.391 µM (≈ 0.348 µg/mL) for the second.

Work on `O=C(O)c1cc(CN[C@H]2C[C@@H](COc3ccc(NS(=O)(=O)N4CCOC(c5ccc(F)cc5)C4)c(C(=O)O)c3)C2)ccc1NS(=O)(=O)N1CCOC(c2ccc(F)cc2)C1` (stereo partly drawn) [Compound 95] yielded an MIC of 0.0122 µM (≈ 0.0106 µg/mL).
